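Five compound concentrations were applied to cells in 96-well plates for 48 hours; endpoints were derived by simple linear interpolation of the resulting dose-response curve. Abbreviation: GI50, concentration required for 50% inhibition of growth. TGI is the concentration that stops growth completely.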
Columns and labels:
Assay in all cases: NCI tumour cell line growth inhibition, 48 h
UACC-62 melanoma = test system: UACC-62 melanoma
SF-295 CNS = test system: SF-295 CNS
NCI-H522 lung = test system: NCI-H522 lung
SK-MEL-2 melanoma = test system: SK-MEL-2 melanoma
EKVX NSCLC = test system: EKVX NSCLC
HOP-62 NSCLC = test system: HOP-62 NSCLC
HT29 colon = test system: HT29 colon
HL-60(TB) leukemia = test system: HL-60(TB) leukemia
MALME-3M melanoma = test system: MALME-3M melanoma

SMILES	TGI (UACC-62 melanoma) [µM]	TGI (SF-295 CNS) [µM]	TGI (NCI-H522 lung) [µM]	TGI (SK-MEL-2 melanoma) [µM]	TGI (EKVX NSCLC) [µM]	TGI (HOP-62 NSCLC) [µM]	TGI (HT29 colon) [µM]	TGI (HL-60(TB) leukemia) [µM]	TGI (MALME-3M melanoma) [µM]	GI50 (UACC-62 melanoma) [µM]	GI50 (SF-295 CNS) [µM]	GI50 (NCI-H522 lung) [µM]	GI50 (SK-MEL-2 melanoma) [µM]	GI50 (EKVX NSCLC) [µM]	GI50 (HOP-62 NSCLC) [µM]	GI50 (HT29 colon) [µM]	GI50 (HL-60(TB) leukemia) [µM]
NC(=O)c1c(NC=O)ncn1C1OCC(O)C(O)C1O (configuration not stated)	> 100	> 100	> 100	> 100	> 100	> 100	> 100	> 100	> 100								
CC[C@H](C)C1=C(O)[N@+]2([O-])Oc3ccc(-c4c(O)c(O)c(-c5ccc(O)cc5)c(OC(C)=O)c4OC(C)=O)cc3O[C@]2([C@@H](C)CC)C(=O)N1O	> 50	> 50	17.4	> 50	> 50	> 50	> 50	> 50	> 50								
CN(C)c1cccc2c1C(=O)C=CC21CCc2ccc(N(C)C)c3c(N(C)C)ccc1c23 (configuration not stated)	26.9	43.1			63.1	32.8	27	27.3	24.4								
O=C(Nc1nnc(-c2c(Cl)c(Cl)c(Cl)c(Cl)c2-c2nc3cc(C(=O)c4ccccc4)ccc3[nH]2)o1)c1ccc(Cl)cc1		42.4		> 100	> 100	67.5	> 100	> 100									
COc1nc2c(c(=O)n1C)N=C(c1ccc(Cl)cc1)CC(c1ccccc1)N2 (configuration not stated)	37.6	57.6	44.9	42.9	69.2	> 100	47.4										
Nc1c2c(nc3ccccc13)-c1ccccc1NCCC2	41.2	50.8	82.6	37.1	> 100	54.2	83.9	47.5	32.9								
C=CCc1cc(C(Cc2ccccc2)NC(C)C)cc(OCc2ccccc2)c1OCc1ccccc1 (configuration not stated)	28.4	31.6	28.8	33.4	30	30.3	28.6	34.7	28.9								
NC(Cc1ncccn1)C(=O)O (configuration not stated)	> 100	> 100	> 100	> 100	> 100	> 100	> 100		> 100								
S=C(N1CCN(c2cccc(Cl)c2)CC1)N1CCN(c2cccc(Cl)c2)CC1	> 100	> 100	> 100	> 100	> 100	> 100	> 100		71.4								
O=C(NCCNc1nccc(-c2c(-c3cccc(O)c3)nc3sccn23)n1)c1ccccc1	1.37	38	25.5	12.9	> 100	94.2	38.3	29.6		0.211	12.9	5.76	2.94	25	23.5	6.8	10.2
COc1ccc2c3c([nH]c2c1)CCN(Cc1ccccc1)C3	> 100	28.2			> 100	80.2	> 100	35.8	34.6								
CC(C)(C)OC(=O)CN1CCN(CC(=O)N2CCN(C(=O)OCc3ccccc3)CC2)CCN(CC(=O)OC(C)(C)C)CCN(CC(=O)N2CCN(C(=O)OCc3ccccc3)CC2)CC1	7.59	13.8	2.87	5.54	34.3	16.4	1.37	0.525	7.94								
N#Cc1c(-c2ccc(Cl)cc2)c2c(N=Nc3c(O)ccc4ccccc34)[nH]nc2[nH]c1=O	0.324	1.18	0.823	0.943	2.19	1.82	1.87		0.944								
CCn1c2ccccc2c2ccc(C3C(C(=O)OC)=C(C)NC(C)=C3C(=O)OC)cc21	> 100	> 100			> 100	> 100	> 100	> 100	60.1								
CCOC(=O)Cc1cnc(NC(NC(=O)CC)(C(F)(F)F)C(F)(F)F)s1	> 100		> 100	> 100	> 100	> 100	> 100	> 100	> 100								
O=C1CSC2=NC3=C(CSC/C3=C\c3ccccc3)C(c3ccccc3)N12 (configuration not stated)	> 100	> 100		> 100	> 100	> 100	> 100	> 100	> 100								
ClCc1cccc(CSc2ncnc3c2ncn3Cc2cccc(CCl)c2)c1	3.46	5.59	3.42	6.81	24.6	3.33	3.74	5.03		1.76	2.13	1.42	2.58	10.1	1.8	2.04	2.26
CC(=O)C(=[N+]=[N-])C(=O)N(C)CCC#N	> 10	> 10		> 10	> 10	> 10	> 10	> 10	> 10								

SMILES	TGI (UACC-62 melanoma) [µM]	TGI (SF-295 CNS) [µM]	TGI (NCI-H522 lung) [µM]	TGI (SK-MEL-2 melanoma) [µM]	TGI (EKVX NSCLC) [µM]	TGI (HOP-62 NSCLC) [µM]	TGI (HT29 colon) [µM]	TGI (HL-60(TB) leukemia) [µM]	TGI (MALME-3M melanoma) [µM]	GI50 (UACC-62 melanoma) [µM]	GI50 (SF-295 CNS) [µM]	GI50 (NCI-H522 lung) [µM]	GI50 (SK-MEL-2 melanoma) [µM]	GI50 (EKVX NSCLC) [µM]	GI50 (HOP-62 NSCLC) [µM]	GI50 (HT29 colon) [µM]	GI50 (HL-60(TB) leukemia) [µM]
COc1cc2ccc1OCc1cccc(n1)COc1ccc(cc1OC)C=NCCNCCNCCN=C2	> 100		> 100	> 100	> 100	> 100	> 100	> 100	> 100								
O=[N+]([O-])/C(C(Cl)=C(Cl)Cl)=C(\N1CCCCC1)n1nnc2ccccc21	36.7	33.3	40	37.7	26.4	48.8	39.3		39.6								
O=S(=O)(O)c1ccc2c(N=Nc3ccc(Cl)cc3)c(O)ccc2c1	> 100	> 100	> 100	> 100	> 100	> 100	> 100		> 100								
CC1(C)OC[C@@H](O)[C@H](Br)CO1	> 100	> 100		> 100	> 100	> 100	> 100	> 100	> 100								
CC(C)(C)OC(=O)Cn1ncn(NC(=O)Cc2ccccc2)c1=O	> 10	> 10	> 10		> 10	> 10	> 10		> 10								
CN(C(=O)Cc1cc(Cl)c(Cl)cc1NC(=O)CN)[C@H]1CCCC[C@@H]1N1CCCC1	30.2	77.1		35.7	> 100	> 100	58.7	52.7	36.1								
NC1Cc2ccccc2OC1=O (configuration not stated)	> 100	> 100	> 100	> 100	> 100	> 100	> 100		> 100								
Cc1nc2[nH]ncn2c(=O)c1CCO	> 10		> 10	> 10	> 10	> 10	> 10	> 10	> 10								
C=CCOc1ccccc1C1(O)c2ccccc2C2=NCCCN21 (configuration not stated)	> 100	71.6			> 100	54.1	36.2	96.8									
NC(=Nc1cccc(Cl)c1)c1ccccc1N	> 100	> 100	> 100		> 100	> 100	> 100	> 100	> 100								
O=C(Nc1sccc1S(=O)(=O)c1ccccc1)c1ccccc1	> 100	> 100	> 100	> 100	> 100	> 100	> 100		> 100								
Cc1cc(O)c(/C=N/C(=S)Nc2ccccc2)c(=O)o1	> 100	> 100	> 100	> 100	> 100	> 100	> 100	> 100									
CCCC1(CCC)c2cc(/C=N\O)ccc2-c2ccc(-c3ccc(C(C)(C)C)cc3)cc21		> 100		99.3	> 100	> 100	> 100	51.7	> 100								
COc1ccc2c3c1OC1C34CCN(C)C(C2)C4=CC(I)C1(OC)OC (configuration not stated)	28	> 100	15.3	30.3	33.8	20.8	22		21.9								
CCn1c(=O)c2nc(SC)sc2n(-c2ccccc2)c1=O		> 100	> 100	> 100		> 100	> 100	> 100	> 100								
Cc1cccc(C)c1Nc1nc(C)c(C(=O)CC(=O)C(=O)Nc2c(C(C)C)cccc2C(C)C)s1	> 100	> 100	> 100	> 100	> 100	> 100	> 100	> 100									
CCN(CC)c1ccc2cc(C(=O)Nc3ccc(C)cc3)c(=N)oc2c1	> 100			> 100	> 100	> 100	> 100	> 100	> 100								
CCOC(=O)C(C)c1nc2ccc(C(F)(F)F)cc2[nH]c1=O (configuration not stated)	> 100	> 100		> 100	> 100	> 100	> 100	> 100	> 100								

Source: PubChem BioAssay (NCI)
